In US5891435A, “Methods and compositions for delaying or preventing the onset of autoimmune disease” (Research Corporation Technologies, Inc., priority 1993, dated 1999):
Entries after “also recorded” stand apart in the source; their conditions may differ.

What was measured:
[1] = test system: insulin antibodies; experiment: Insulin antibodies (IAA) in serum of immunized NOD mice, competitive radiobinding assay; type: in vivo, mouse; details: NOD mice immunized subcutaneously in IFA
Protocol: Littermates were divided into 3 groups. […] Complete Freund's adjuvant was avoided because of its known protective effect in NOD mice (Qin et al. [1993] J. Immunol. 150:2072-2080). […] Treatments started at 4 weeks of age and subsequent immunizations were administered at ages 12, 16, and 22 weeks. […] In addition, 2 new treatments were assessed. […] As in the first study, immunizations were given in IFA commencing at 4 weeks of age, but subsequent injections were given at 8 week intervals. In a third NOD mouse experiment, controlled by 18, 0.9% saline+IFA-treated littermates (10 female and 8 male), 18 mice received 250 μg BSA (Sigma) in IFA (10 female and 8 male). A third group of 21 littermates was treated with 100 μg of the 17 amino acid component peptide of BSA called ABBOS in IFA (11 female and 10 male).
(§1) Venous blood samples, obtained from the tail vein or retro-orbital sinus were tested serially for glucose and IAA. Blood glucose was determined using a Chemstrip bG (Boehringer Mannheim) read visually as verified by a reflectance meter. Diabetes was diagnosed when the whole blood glucose level was greater than 240 mg/dl (13.3 mmol/L). A liquid phase competitive radiobinding assay using 1:3 diluted mouse sera was used to determine IAA titer (Vardi et al. [1987] Diabetes 36:1286-1291). Normal murine levels, established from a survey of 48 mice from six different strains that were not susceptible to spontaneous diabetes were considered to be below 180 nU/ml (3 standard deviations above mean).

[2] = test system: irradiated NOD recipients; experiment: Adoptive co-transfer of splenocytes from immunized and acutely diabetic NOD mice to irradiated NOD recipients; type: in vivo, mouse; details: for Transfer of protection by splenocytes of immunized mice (in words): irradiated NOD recipients, adoptive co-transfer
Source text: At age 10 weeks, splenocyte pools were obtained from these mice, each pool comprising cells from 3 similarly treated animals. These "modulator" splenocytes were mixed with an equal number of pooled splenocytes that had been harvested from 6 untreated, acutely diabetic NOD mice. Six hours after a 700 Rad dose of γ-irradiation, 10 previously untreated, non-diabetic, 10 week old male NOD mice received an intravenous infusion containing a total of 40×10^6 cells from one of the mixtures, i.e. 3 diluent-, 3 A chain-, and 4 B chain-treated animals.
as §1
(§2) Non-diabetic mice in the subcutaneous immunization protocol that survived to 40 weeks were sacrificed at that age. Their pancreata were removed, fixed in 10% formalin and stained for light microscopic examination with hematoxylin and eosin. The slides were coded and a consensus insulitis score was determined by 3 examiners before the code was broken. The presence of insulitis was scored using a previously described dual scale that assesses both the severity of immune infiltration and the cytoarchitectural disruption. Finally, the pancreata from the modulator cell donors in the adoptive transfer studies were similarly reviewed at 10 weeks of age. Pancreata from 8 of 10 recipients (only 2 of 4 mice receiving B chain modulator cells were sacrificed) were analyzed 20 days after their adoptive transfer.
The method of Kaplan and Meier (Kaplan and Meier [1958] J. Am. Stat. Assoc. 53:457-481) was used to construct life tables and the logrank Chi-square statistic was used to compare them (Mantel, N. (1966) Cancer Chemother. Rep. 50:163-170). A Student t-test or one-way ANOVA was used when appropriate to compare means. Fisher's exact test was applied to compare frequencies in the adoptive transfer studies. P-values are 2-sided.

[3] = test system: NOD mice; experiment: Subcutaneous immunization in IFA, development of diabetes in NOD mice; type: in vivo, mouse; details: for Protective effect against diabetes (in words): subcutaneous immunization in IFA; for IDD rate (frequency of diabetes): subcutaneous immunization in IFA from 4 weeks of age, FIG. 1
Source text: NOD/Uf mice (Winter [1990] Diabetes 39:975-982) were bred and maintained in the temperature and light controlled facility of the Department of Pathology at the University of Florida. After weaning at 3-4 weeks of age, littermates were housed in groups of no more than 6 per cage. A soy and […]-based chow (Harlan, Madison, Wis.) and water were available ad libitum. Typical diabetes rates in the NOD/Uf colony at 40 weeks of age are near 90% in females and 30% in males. Littermates were divided into 3 groups. […] Complete Freund's adjuvant was avoided because of its known protective effect in NOD mice (Qin et al. [1993] J. Immunol. 150:2072-2080). […] Treatments started at 4 weeks of age and subsequent immunizations were administered at ages 12, 16, and 22 weeks. […] In addition, 2 new treatments were assessed. […] As in the first study, immunizations were given in IFA commencing at 4 weeks of age, but subsequent injections were given at 8 week intervals. In a third NOD mouse experiment, controlled by 18, 0.9% saline+IFA-treated littermates (10 female and 8 male), 18 mice received 250 μg BSA (Sigma) in IFA (10 female and 8 male). A third group of 21 littermates was treated with 100 μg of the 17 amino acid component peptide of BSA called ABBOS in IFA (11 female and 10 male). This peptide has been proposed as an environmental molecular mimic of an endogenous islet protein. Venous blood samples, obtained from the tail vein or retro-orbital sinus were tested serially for glucose and IAA. Blood glucose was determined using a Chemstrip bG (Boehringer Mannheim) read visually as verified by a reflectance meter. Diabetes was diagnosed when the whole blood glucose level was greater than 240 mg/dl (13.3 mmol/L). A liquid phase competitive radiobinding assay using 1:3 diluted mouse sera was used to determine IAA […] al. [1987] Diabetes 36:1286-1291). Normal murine levels, established from a survey of 48 mice from six different strains that were not susceptible to spontaneous diabetes were considered to be below 180 nU/ml (3 standard deviations above mean). The method of Kaplan and Meier (Kaplan and Meier [1958] J. Am. Stat. Assoc. 53:457-481) was used to construct life tables and the logrank Chi-square statistic was used to compare them (Mantel, N. (1966) Cancer Chemother. Rep. 50:163-170). A Student t-test or one-way ANOVA was used when appropriate to compare means. Fisher's exact test was applied to compare frequencies in the adoptive transfer studies.

[4] = test system: NOD mice; experiment: Insulitis score / pancreatic histology of immunized NOD mice; type: in vivo, mouse; details: NOD mice immunized subcutaneously in IFA; non-diabetic survivors at 40 weeks
Protocol: as §2

[5] = test system: NOD mice; details: cited from earlier work
[6] = irradiated male NOD recipients of splenocytes from treated donors plus diabetic donors, diabetic/total

Row | Substance | Insulin antibody level / insulin binding activity in serum (in words) [1] | Number of Diabetic Mice, Day 10 [2, 6] | Number of Diabetic Mice, Day 20 [2, 6] | Protective effect against diabetes (in words) [3] | IDD rate (frequency of diabetes) [3] | Insulitis / pancreatic histology (in words) [4] | other results
1 | A chain: recombinant human A chain insulin, given in IFA | high insulin binding activity in serum | 0/3 | 3/3 | had no protective effects | 53% | – | Insulin antibody level / insulin binding activity in serum (in words) ([1]; listed as A): stimulated high levels of insulin antibodies; Protective effect against diabetes (in words) ([3]; listed as A chain insulin): did not however alter the course of IDD
2 | B chain: recombinant human B chain insulin, given in IFA | stimulated high levels of insulin antibodies; also recorded: high insulin binding activity in serum | 0/4 | 0/4 | resulted in protection from diabetes; also recorded: protection conferred by subcutaneous insulin immunization was duplicated; also recorded: all of the protection was localized to the B chain | 16% | neither insulin nor B chain immunizations diminished insulitis | Time for which diabetes was prevented after co-transfer ([2]; co-transfer of splenocytes from treated and acutely diabetic mice, p=0.03): at least 75 days; Transfer of protection by splenocytes of immunized mice (in words) [2]: able to confer the protective effect on irradiated NOD recipients; Transfer of protection by splenocytes of immunized mice (in words) ([2]; listed as B chain of insulin): able to protect irradiated, recipient mice; Number of Diabetic Mice, Day 75 [2, 6]: 0/2; Protective effect against diabetes (in words) ([3]; listed as B chain of insulin): reproduced the protective effect of insulin; also recorded: excellent protection against IDD; Protective effect against diabetes (in words) ([3]; listed as insulin B chain): protection equal or superior to that conferred by intact insulin
3 | bovine serum albumin [BSA, reference compound] | – | – | – | had no protective effects | – | – | –
4 | glutamic acid decarboxylase [human GAD65] | – | – | – | onset of diabetes has been delayed | – | – | –
5 | insulin: purified porcine NPH insulin (first study) or recombinant human NPH insulin (second study, FIG. 1), given subcutaneously in incomplete Freund's adjuvant [reference compound] | – | – | – | significantly reduced the incidence of diabetes; also recorded: strong protection for diabetes was achieved; also recorded: significantly reduce the incidence of IDD; also recorded: excellent protection against IDD | under 13% | incidence and severity of insulitis were little affected, or actually increased; also recorded: not significantly reduced; also recorded: neither insulin nor B chain immunizations diminished insulitis | Protection from hyperglycemia and insulitis (in words) ([5]; extended prophylactic course of daily subcutaneous injections, NOD mice (Atkinson et al. 1990)): protected NOD mice from both hyperglycemia and islet infiltration by mononuclear leukocytes (insulitis); Response to oral insulin (in words) ([5]; oral, NOD mice (Zhang et al. 1991)): beneficial response
